In BindingDB's records for PubMed 8437101 (University of Pennsylvania, 1993):
Structures can show the parent of a compound that is named as a salt.

These compounds were tested against D(3) dopamine receptor (Rattus norvegicus, UniProt P19020).
D(3) dopamine receptor, sequence (P19020 whole entry): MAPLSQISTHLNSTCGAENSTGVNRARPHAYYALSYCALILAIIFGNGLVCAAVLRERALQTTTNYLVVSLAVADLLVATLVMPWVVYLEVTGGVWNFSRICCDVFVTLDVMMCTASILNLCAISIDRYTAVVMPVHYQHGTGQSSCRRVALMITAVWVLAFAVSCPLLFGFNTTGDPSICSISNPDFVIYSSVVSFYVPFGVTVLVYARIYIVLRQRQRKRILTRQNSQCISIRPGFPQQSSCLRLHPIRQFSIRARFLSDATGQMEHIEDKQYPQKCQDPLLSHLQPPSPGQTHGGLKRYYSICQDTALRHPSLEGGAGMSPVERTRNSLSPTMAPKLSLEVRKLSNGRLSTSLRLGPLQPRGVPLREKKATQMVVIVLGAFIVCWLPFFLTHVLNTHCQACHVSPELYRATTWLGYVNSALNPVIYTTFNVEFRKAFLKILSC

SMILES	Ki
CN1CCN(C2=Nc3cc(F)ccc3Cc3ccccc32)CC1	255 nM
CCCN[C@@H]1CCc2c(OC)cccc2[C@@H]1C	438 nM
CN1CCN(C2=Nc3ccccc3Cc3ccccc32)CC1	919 nM
OCCN1CCN(CCCN2c3ccccc3Sc3ccc(C(F)(F)F)cc32)CC1 [2-[4-[3-[2-(trifluoromethyl)phenothiazin-10-yl]propyl]piperazin-1-yl]ethanol;hydrochloride]	0.71 nM
CCc1cc(Cl)c(OC)c(C(=O)NC[C@@H]2CCCN2CC)c1O [3-Chloro-5-ethyl-N-((S)-1-ethyl-pyrrolidin-2-ylmethyl)-6-hydroxy-2-methoxy-benzamide]	0.23 nM
CN1CCc2cccc3c2[C@H]1Cc1ccc(O)c(O)c1-3 [APOKYN]	43.9 nM
COc1cc(N)c(Cl)cc1C(=O)N[C@@H]1C[C@H]2CCC[C@@H](C1)N2Cc1ccc(F)cc1 [BRL-34778]	0.28 nM
Cc1nc2n(c(=O)c1CCN1CCC(C(=O)c3ccc(F)cc3)CC1)CCS2 [CAS_86487-64-1]	106 nM
CCCN(CCC)C1C=Cc2c(OC)cccc2C1C (stereo not given) [CAS_5311190]	36.5 nM
O=C(O)c1ccccc1C(=O)Nc1cccc2ccccc12 [NPA,(+)]	0.81 nM
